Test results taken from patent US20050137261A1, “Method for treating inflammatory bowel diseases” (MEIJI DAIRIES CORPORATION, priority 2003, published 2005).

Experiments:
[1] = tested on: dextran sodium sulfate (DSS) colitis; test: DSS colitis in mice: survival rate and HE-staining of the large intestine; assay type: in vivo, C57/BL6 Mice
Description: C57/BL6 Mice (female, 8 weeks old) were employed. They were bred under SPF conditions, and then used in the test. 2.5% Dextran sodium sulfate (DSS, MW 50,000) was added to drinking water (distilled water) for mice, and the mice were allowed to drink the resultant water freely for 7 days (induction of colitis). Subsequently, DHNA was administered to the mice in the following manner. DHNA was dissolved in dimethyl sulfoxide (DMSO) (0.1 g/0.5 mL). The resultant neat solution, along with ascorbic acid for stabilizing DHNA (1%), was added to drinking water (distilled water) for mice, and the mice were allowed to drink the resultant water freely for 7 days. DHNA concentration was 0.6 mg/kg or 2 mg/kg. Distilled water to which DMSO and ascorbic acid had been added in equal amounts was employed as a control group. Survival rate was that as determined for the mice on day 10 after starting administration of DHNA. The large intestine was removed from each mouse, and fixed with periodate-lysine-paraformaldehyde (PLP), whereby frozen slices were prepared. Through use of the thus-obtained frozen sections, immunohistochemical staining using labeled streptavidin-biotin (LSAB) and HE-staining were performed. In the immunohistochemical staining, anti-MAdCAM-1 and anti-β7integrin were used as primary antibodies and biotin-labeled FITC was employed as a secondary antibody.

Bifidobacterium bifidum = details: taught by WO03/016544; cited from earlier work
MAdCAM-1 = test: Immunohistochemical staining (LSAB) of large intestine sections, DSS colitis, anti-MAdCAM-1; assay type: in vivo, C57/BL6 Mice; details: large intestine frozen sections, DHNA administration group
Description: (§1) C57/BL6 Mice (female, 8 weeks old) were employed. They were bred under SPF conditions, and then used in the test.
(§2) 2.5% Dextran sodium sulfate (DSS, MW 50,000) was added to drinking water (distilled water) for mice, and the mice were allowed to drink the resultant water freely for 7 days (induction of colitis). Subsequently, DHNA was administered to the mice in the following manner.
(§3) DHNA was dissolved in dimethyl sulfoxide (DMSO) (0.1 g/0.5 mL). The resultant neat solution, along with ascorbic acid for stabilizing DHNA (1%), was added to drinking water (distilled water) for mice, and the mice were allowed to drink the resultant water freely for 7 days. DHNA concentration was 0.6 mg/kg or 2 mg/kg. Distilled water to which DMSO and ascorbic acid had been added in equal amounts was employed as a control group.
(§4) The large intestine was removed from each mouse, and fixed with periodate-lysine-paraformaldehyde (PLP), whereby frozen slices were prepared. Through use of the thus-obtained frozen sections, immunohistochemical staining using labeled streptavidin-biotin (LSAB) and HE-staining were performed. In the immunohistochemical staining, anti-MAdCAM-1 and anti-β7integrin were used as primary antibodies and biotin-labeled FITC was employed as a secondary antibody.

[2] = subject of milk intolerance; DHNA or its salts; taught by WO03/016544; cited from earlier work
β7 positive cells = test: Immunohistochemical staining (LSAB) of large intestine sections, DSS colitis, anti-β7integrin; assay type: in vivo, C57/BL6 Mice; details: large intestine frozen sections, DHNA administration group
Description: as §1, §2, §3, §4

O=C(O)c1cc(O)c2ccccc2c1O [DHNA, 1,4-dihydroxy-2-naphthoic acid]
Survival rate ([1]; day 10 after starting the test, DHNA 0.6 mg/kg or 2 mg/kg in drinking water for 7 days after 2.5% DSS for 7 days, versus control group): significantly high | HE-staining findings: ulcer and erosion in the epithelium, cellular infiltration, submucosal thickening ([1]; large intestine, DHNA administration group versus control group): suppression of the above conditions was observed | Development of DSS enteritis ([1]; overall conclusion, by suppressing infiltration of activated immunocytes): suppress development of DSS enteritis | Proliferation of Bifidobacterium bifidum (Bifidobacterium bifidum): stimulating proliferation | Expression of adhesion molecule MAdCAM-1 (MAdCAM-1): suppressed | Abdominal discomfort after ingestion of milk [2]: mitigate abdominal discomfort | β7 positive cells (immunohistochemical staining) (β7 positive cells): reduced
